Test results taken from the Kinase Knowledgebase extract (Sharma et al. 2016).
Several values for one entry are separate records, joined by “and”; a condition that tells them apart may be missing. Identical values can stand only once.

What was measured:
[1] = target: PIK3CA (human) (UniProt P42336); test: Enzyme Assay
[2] = target: PIK3CD (Human) (UniProt O00329); test: Enzyme Assay
[3] = target: PIK3CB (Human) (UniProt P42338); test: Enzyme Assay
[4] = target: PIK3CG (human) (UniProt P48736); test: Enzyme Assay
[5] = target: PIK3CA (human), P42336 [H1047R]; test: Cell-Based Assay; conditions: detroit562
[6] = target: PIK3CA (human) (UniProt P42336); test: Cell-Based Assay; conditions: rat-1
[7] = target: PIK3CD (Human) (UniProt O00329); test: Cell-Based Assay; conditions: rat-1
[8] = target: PIK3CB (Human) (UniProt P42338); test: Cell-Based Assay; conditions: rat-1

Sequence of PIK3CA (human) (P42336 whole entry, looked up): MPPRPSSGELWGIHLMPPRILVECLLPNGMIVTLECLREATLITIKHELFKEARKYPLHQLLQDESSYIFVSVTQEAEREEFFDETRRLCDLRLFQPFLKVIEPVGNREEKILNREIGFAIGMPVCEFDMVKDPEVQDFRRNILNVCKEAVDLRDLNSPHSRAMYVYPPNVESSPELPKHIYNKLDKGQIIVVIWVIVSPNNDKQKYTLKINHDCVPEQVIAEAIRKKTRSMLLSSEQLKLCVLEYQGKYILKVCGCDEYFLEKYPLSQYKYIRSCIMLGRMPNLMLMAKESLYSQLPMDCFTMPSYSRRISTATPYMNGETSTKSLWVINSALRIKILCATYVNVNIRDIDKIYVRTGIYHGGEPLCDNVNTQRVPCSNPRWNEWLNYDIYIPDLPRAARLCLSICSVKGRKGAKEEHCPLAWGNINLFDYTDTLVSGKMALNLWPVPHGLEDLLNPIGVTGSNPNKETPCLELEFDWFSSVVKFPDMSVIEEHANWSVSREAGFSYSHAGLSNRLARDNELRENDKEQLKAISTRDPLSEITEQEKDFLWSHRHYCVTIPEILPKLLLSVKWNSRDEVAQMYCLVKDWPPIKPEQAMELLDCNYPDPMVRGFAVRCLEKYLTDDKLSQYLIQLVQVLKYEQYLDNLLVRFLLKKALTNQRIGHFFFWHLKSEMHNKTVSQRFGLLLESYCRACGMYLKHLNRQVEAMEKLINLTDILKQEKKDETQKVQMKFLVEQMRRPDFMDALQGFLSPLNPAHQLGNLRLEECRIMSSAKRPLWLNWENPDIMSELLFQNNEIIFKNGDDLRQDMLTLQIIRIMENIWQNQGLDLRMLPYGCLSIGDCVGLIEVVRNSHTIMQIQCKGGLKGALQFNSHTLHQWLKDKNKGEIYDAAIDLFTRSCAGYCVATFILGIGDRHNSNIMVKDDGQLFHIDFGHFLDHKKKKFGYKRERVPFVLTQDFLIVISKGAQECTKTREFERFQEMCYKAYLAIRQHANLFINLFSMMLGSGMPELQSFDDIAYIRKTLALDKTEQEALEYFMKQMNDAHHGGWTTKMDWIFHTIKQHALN
Sequence of PIK3CB (Human) (P42338 whole entry, looked up): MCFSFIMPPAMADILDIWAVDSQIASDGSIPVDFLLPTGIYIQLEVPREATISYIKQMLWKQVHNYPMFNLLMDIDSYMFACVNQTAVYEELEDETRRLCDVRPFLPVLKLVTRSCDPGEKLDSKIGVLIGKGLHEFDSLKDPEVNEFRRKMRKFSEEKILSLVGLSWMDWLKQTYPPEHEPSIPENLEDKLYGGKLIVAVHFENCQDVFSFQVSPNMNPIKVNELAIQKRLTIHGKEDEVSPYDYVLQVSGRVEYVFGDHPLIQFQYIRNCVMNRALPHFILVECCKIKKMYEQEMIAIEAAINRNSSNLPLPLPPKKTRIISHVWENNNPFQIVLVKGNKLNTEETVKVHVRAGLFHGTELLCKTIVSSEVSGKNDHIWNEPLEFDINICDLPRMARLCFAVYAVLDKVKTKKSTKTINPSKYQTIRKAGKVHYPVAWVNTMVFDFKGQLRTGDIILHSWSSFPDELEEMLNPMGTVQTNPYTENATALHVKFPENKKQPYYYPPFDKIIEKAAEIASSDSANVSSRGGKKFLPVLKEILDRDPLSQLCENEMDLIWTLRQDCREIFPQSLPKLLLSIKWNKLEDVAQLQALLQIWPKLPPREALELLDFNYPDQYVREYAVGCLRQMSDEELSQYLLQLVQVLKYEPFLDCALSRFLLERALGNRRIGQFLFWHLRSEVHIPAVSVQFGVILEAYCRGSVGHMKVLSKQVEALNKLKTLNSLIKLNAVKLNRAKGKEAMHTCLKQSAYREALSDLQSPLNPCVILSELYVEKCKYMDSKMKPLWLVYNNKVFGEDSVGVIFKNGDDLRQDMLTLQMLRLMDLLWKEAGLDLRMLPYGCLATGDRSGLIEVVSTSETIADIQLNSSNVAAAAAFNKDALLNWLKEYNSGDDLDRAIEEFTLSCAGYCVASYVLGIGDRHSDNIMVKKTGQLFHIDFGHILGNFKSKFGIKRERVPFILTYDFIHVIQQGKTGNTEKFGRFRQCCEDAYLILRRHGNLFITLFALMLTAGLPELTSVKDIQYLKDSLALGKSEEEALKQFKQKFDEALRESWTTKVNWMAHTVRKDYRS
Sequence of PIK3CG (human) (P48736 whole entry, looked up): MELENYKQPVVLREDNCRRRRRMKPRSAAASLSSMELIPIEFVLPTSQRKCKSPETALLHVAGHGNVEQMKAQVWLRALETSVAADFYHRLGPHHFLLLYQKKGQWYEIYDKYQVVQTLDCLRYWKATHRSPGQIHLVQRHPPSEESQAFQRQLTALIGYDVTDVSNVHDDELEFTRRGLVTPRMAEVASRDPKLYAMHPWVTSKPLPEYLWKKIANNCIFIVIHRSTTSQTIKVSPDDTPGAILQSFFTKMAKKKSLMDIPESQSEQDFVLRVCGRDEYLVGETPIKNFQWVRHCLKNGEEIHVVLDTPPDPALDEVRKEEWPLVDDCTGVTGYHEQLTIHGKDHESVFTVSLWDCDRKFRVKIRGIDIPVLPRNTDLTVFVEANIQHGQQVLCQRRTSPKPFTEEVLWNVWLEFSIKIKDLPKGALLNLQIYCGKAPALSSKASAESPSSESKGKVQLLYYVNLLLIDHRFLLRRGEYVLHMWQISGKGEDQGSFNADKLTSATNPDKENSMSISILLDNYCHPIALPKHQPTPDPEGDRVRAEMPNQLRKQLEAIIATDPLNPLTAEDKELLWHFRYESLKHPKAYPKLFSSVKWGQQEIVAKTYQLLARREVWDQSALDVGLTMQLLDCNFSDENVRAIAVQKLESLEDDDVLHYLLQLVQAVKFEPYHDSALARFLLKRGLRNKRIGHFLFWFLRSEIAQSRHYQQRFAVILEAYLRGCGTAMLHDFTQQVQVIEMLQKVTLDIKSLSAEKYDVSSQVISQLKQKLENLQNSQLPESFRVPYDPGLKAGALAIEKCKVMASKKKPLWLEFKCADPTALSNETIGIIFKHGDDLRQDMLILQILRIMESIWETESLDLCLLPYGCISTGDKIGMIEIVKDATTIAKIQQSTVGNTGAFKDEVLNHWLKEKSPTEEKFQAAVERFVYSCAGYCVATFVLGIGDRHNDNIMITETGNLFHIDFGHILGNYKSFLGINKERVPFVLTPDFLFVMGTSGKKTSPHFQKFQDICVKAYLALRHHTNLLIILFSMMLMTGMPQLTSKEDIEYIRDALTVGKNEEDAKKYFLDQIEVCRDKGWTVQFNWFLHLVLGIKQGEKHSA
Sequence of PIK3CD (Human) (O00329 whole entry, looked up): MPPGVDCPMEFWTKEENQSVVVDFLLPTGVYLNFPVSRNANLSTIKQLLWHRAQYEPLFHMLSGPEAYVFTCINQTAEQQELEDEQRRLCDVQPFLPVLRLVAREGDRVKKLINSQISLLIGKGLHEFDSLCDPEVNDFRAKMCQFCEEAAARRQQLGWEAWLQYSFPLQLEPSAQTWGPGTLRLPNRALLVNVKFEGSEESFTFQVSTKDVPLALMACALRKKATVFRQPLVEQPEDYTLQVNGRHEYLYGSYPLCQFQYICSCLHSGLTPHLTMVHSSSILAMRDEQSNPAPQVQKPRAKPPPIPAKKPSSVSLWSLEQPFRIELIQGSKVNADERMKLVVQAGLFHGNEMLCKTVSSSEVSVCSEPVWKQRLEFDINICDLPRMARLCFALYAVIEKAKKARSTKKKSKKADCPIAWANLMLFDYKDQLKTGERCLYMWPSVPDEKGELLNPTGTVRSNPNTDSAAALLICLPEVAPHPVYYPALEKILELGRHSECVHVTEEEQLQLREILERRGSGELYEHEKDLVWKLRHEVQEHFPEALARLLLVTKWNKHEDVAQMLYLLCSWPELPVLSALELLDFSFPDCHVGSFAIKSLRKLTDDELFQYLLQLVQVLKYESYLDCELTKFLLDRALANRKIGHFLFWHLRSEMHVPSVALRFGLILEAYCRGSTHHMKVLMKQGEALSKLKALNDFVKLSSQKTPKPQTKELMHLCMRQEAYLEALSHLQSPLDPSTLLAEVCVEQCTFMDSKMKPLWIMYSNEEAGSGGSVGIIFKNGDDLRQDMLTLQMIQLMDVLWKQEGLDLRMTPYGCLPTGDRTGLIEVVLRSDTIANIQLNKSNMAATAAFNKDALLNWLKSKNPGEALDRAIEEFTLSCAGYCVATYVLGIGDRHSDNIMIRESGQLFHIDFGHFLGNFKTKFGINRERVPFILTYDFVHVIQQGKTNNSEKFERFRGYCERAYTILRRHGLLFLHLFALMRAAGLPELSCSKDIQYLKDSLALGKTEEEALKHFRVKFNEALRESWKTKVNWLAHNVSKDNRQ
Sequence of PIK3CA (human), P42336 [H1047R] (P42336 whole entry H1047R, looked up): as the sequence (P42336 whole entry, looked up) above, with H1047R counted along it

| SMILES | IC50 [1] | IC50 [2] | IC50 [3] | IC50 [4] | IC50 [5] | IC50 [6] | IC50 [7] | IC50 [8] |
| --- | --- | --- | --- | --- | --- | --- | --- | --- |
| Nc1ncc(-c2cc(N3CCOC(c4ccccc4)C3)nc(N3CCOCC3)n2)c(C(F)(F)F)n1 (configuration not stated) | 15 nM | 110 nM | 27 nM | 170 nM | 2390 nM and 1370 nM | > 10000 nM | 105 nM | > 10000 nM |
| Nc1cc(C(F)(F)F)c(-c2cc(N3CCCCC3=O)nc(N3CCOCC3)n2)cn1 | 94 nM | 848 nM | 237 nM | 3360 nM | 4410 nM and 3080 nM | 369 nM | 1040 nM | 1540 nM |
| CC[C@H]1[C@H](c2ccc(OC)cc2)OC(=O)N1c1cc(-c2cnc(N)nc2C(F)(F)F)nc(N2CCOCC2)n1 |  |  | 96 nM | 5800 nM |  |  |  |  |
| Nc1cc(C(F)(F)F)c(-c2cc(N3CCN(c4ccccc4)C3=O)nc(N3CCOCC3)n2)cn1 | 91 nM | 1980 nM | 236 nM | 7350 nM | 4550 nM and 2810 nM | 606 nM | 1470 nM | 1580 nM |
| COCCOc1ccc([C@@H]2OC(=O)N(c3cc(-c4cnc(N)nc4C(F)(F)F)nc(N4CCOCC4)n3)[C@H]2CO)cc1 |  |  |  |  |  |  | 4 nM |  |

Now from value to molecule:

| IC50 [1] | IC50 [2] | IC50 [3] | IC50 [4] | IC50 [5] | IC50 [6] | IC50 [7] | IC50 [8] | SMILES |
| --- | --- | --- | --- | --- | --- | --- | --- | --- |
|  |  |  |  | 440 nM and 598 nM |  |  |  | C[C@H]1[C@H](c2nccs2)OC(=O)N1c1cc(-c2cnc(N)nc2C(F)(F)F)nc(N2CCOCC2)n1 |
|  |  |  | 7000 nM |  |  |  |  | CC[C@@H]1[C@@H](c2cccc(OC)c2)OC(=O)N1c1cc(-c2cnc(N)nc2C(F)(F)F)nc(N2CCOCC2)n1 |
|  | 24 nM |  | 315 nM |  |  | 139 nM |  | Nc1ncc(-c2cc(N3CCOCC3)nc(N3CCOCC3)n2)c(C(F)(F)F)n1 |
|  |  |  |  |  |  | < 3 nM | < 3 nM | Nc1ncc(-c2cc(N3C(=O)O[C@@H](c4ccc(OCCO)cc4)[C@@H]3CO)nc(N3CCOCC3)n2)c(C(F)(F)F)n1 |
| 327 nM | 1220 nM | 1070 nM | 4460 nM | 3300 nM | 1730 nM | 6540 nM | 5310 nM | Nc1cc(C(F)(F)F)c(-c2cc(N3CCC(=O)CC3)nc(N3CCOCC3)n2)cn1 |
